Experimental data: US7462345B2, “Radionuclide labeling of vitamin B12 and coenzymes thereof” (Mayo Foundation for Medical Education and Research, priority 1995, dated 2008)

Legend:
[1] = pH of 1000 μg/10 ml normal saline solutions; format: physicochemical; conditions: 1000 μg in 10 ml normal saline, no buffers, room temperature
Protocol: Under dim light, 1000 μg of the non-labeled methyl-, adenosyl-, and cyanocobalamin-b-(4-aminobutyl)amide-DTPA, as well as 1000 μg of cyanocobalamin and DTPA (Sigma, St. Louis, Mo. 63178), were separately dissolved in 10 ml of normal saline at room temperature. Each of the five 1000 μg/10 ml samples were stored in sealed, aluminum-Tapped 10 ml vials to prevent exposure to light. No buffers were added to the solutions. The pH of the solutions, measured by a Beckman 40 pH meter (Beckman Instruments, Fullerton, Calif.): Cyanocobalamin=5.75, DTPA=3.78; cyano, methyl and adenosylcobalamin-DTPA analogues were 5.75, 6.10, and 6.19, respectively.

[2] = test system: Intrinsic Factor (IF); assay: modified intrinsic factor blocking antibody (IFBA) assay; format: binding; conditions: for averaged percent binding to IF: average of five patients, estimated from counts vs Clinical run
Protocol: (§1) Under dim light, 1000 μg of the non-labeled methyl-, adenosyl-, and cyanocobalamin-b-(4-aminobutyl)amide-DTPA, as well as 1000 μg of cyanocobalamin and DTPA (Sigma, St. Louis, Mo. 63178), were separately dissolved in 10 ml of normal saline at room temperature. Each of the five 1000 μg/10 ml samples were stored in sealed, aluminum-Tapped 10 ml vials to prevent exposure to light. No buffers were added to the solutions. The pH of the solutions, measured by a Beckman 40 pH meter (Beckman Instruments, Fullerton, Calif.): Cyanocobalamin=5.75, DTPA=3.78; cyano, methyl and adenosylcobalamin-DTPA analogues were 5.75, 6.10, and 6.19, respectively. To assess in vitro binding to Intrinsic Factor (IF) and Transcobalamins (TC), the intrinsic factor blocking antibody (IFBA) and Unsaturated vitamin B12 Binding Capacity (UBBC) assays were performed with serum randomly obtained from five patients being evaluated for pernicious anemia at the Mayo Clinic. The IFBA and UBBC assays were first performed for clinical purposes as previously described by V. F. Fairbanks et al., Mayo Clin. Proc., 58, 203 (1983); Intrinsic Factor Blocking Antibody [^57Co] Radioassay-Package insert, Diagnostic Products Corp.; D. Grossowicz et al., Proc. Exp. Biol. 109, 604 (1962) and C. Gottlieb et al., Blood 25, 6 (1965). Next, the serum from the same five patients underwent modified IFBA and UBBC assays. Specifically, 1 μl of the five previously described solutions were separately incubated with purified IF or serum, to potentially saturate all IF and TC binding sites. After incubation for 20 minutes at room temperature and for another 20 minutes at 4° C., 500 μl of the stock (1000 μg/l) Cobalt-57-cyanocobalamin (Mallinckrodt Medical. Inc., St. Louis, Mo. 63134) solution was added and the usual IFBA and UBBC protocols were then followed. All supernatant activity was counted for four minutes on a gamma counter (Micromedix 10/20, Huntsville, Ala. 35805).

[3] = test system: Transcobalamins (TC); assay: modified Unsaturated vitamin B12 Binding Capacity (UBBC) assay; set-up: species or system human; conditions: for averaged percent binding to the transcobalamin proteins: average of five patients; for UBBC supernatant counts: NSB = counts <100
Protocol: as §1

[4] = PT 1, negative <1.11, positive (binding to IF) >1.43, indeterminate 1.11-1.43
[5] = PT 2, negative <1.11, positive >1.43
[6] = PT 3, negative <1.11, positive >1.43
[7] = PT 4, negative <1.11, positive >1.43
[8] = PT 5, negative <1.11, positive >1.43
[9] = serum PT 1, preincubated with 1 μl of 1000 μg/10 ml solution, then Co-57-cyanocobalamin, Clinical Run 741

SMILES: CC1=C2N=C(C=C3N=C(C(C)=C4[N-]C(C(CC(N)=O)C4(C)CCC(=O)NCC(C)OP(=O)([O-])OC4C(CO)OC(n5cnc6cc(C)c(C)cc65)C4O)C4(C)N=C1C(CCC(=O)NCCCCNC(=O)CN(CCN(CCN(CC(=O)O)CC(=O)O)CC(=O)O)CC(=O)O)C4(C)CC(N)=O)C(CCC(N)=O)C3(C)C)C(CCC(N)=O)C2(C)CC(N)=O.[CH2-]C1OC(n2cnc3c(N)ncnc32)C(O)C1O.[Co+3] (stereo not drawn) [ADB12DTPA, adenosylcobalamin-b-(4-aminobutyl)-amide-DTPA]
- pH of the solution [1]: 6.19
- IFBA supernatant counts ([2]; PT 1, Clinical Run 11942.5): 6758.5 counts
- IFBA value (in parentheses) [2, 4]: (2.30)
- IFBA supernatant counts ([2]; PT 2, Clinical Run 11656): 6841.5 counts
- IFBA value (in parentheses) [2, 5]: (1.74)
- IFBA supernatant counts ([2]; PT 3, Clinical Run 11780): 6828.5 counts
- IFBA value (in parentheses) [2, 6]: (1.74)
- IFBA supernatant counts ([2]; PT 4, Clinical Run 11617): 7046.5 counts
- IFBA value (in parentheses) [2, 7]: (1.64)
- IFBA supernatant counts ([2]; PT 5, Clinical Run 11653.5): 7096.5 counts
- IFBA value (in parentheses) [2, 8]: (1.72)
- averaged percent binding to IF [2]: 41.0%
- averaged percent binding to the transcobalamin proteins [3]: 90.4%
- UBBC supernatant counts [3, 9]: 54.6 counts
- UBBC supernatant counts ([3]; serum PT 2, Clinical Run 632): 62.6 counts
- UBBC supernatant counts ([3]; serum PT 3, Clinical Run 2097): 590.3 counts
- UBBC supernatant counts ([3]; serum PT 4, Clinical Run 1378): 126.9 counts
- UBBC supernatant counts ([3]; serum PT 5, Clinical Run 1682): 163.9 counts

SMILES: CC1=C2N=C(C=C3N=C(C(C)=C4[N-]C(C(CC(N)=O)C4(C)CCC(=O)NCC(C)OP(=O)([O-])OC4C(CO)OC(n5cnc6cc(C)c(C)cc65)C4O)C4(C)N=C1C(CCC(=O)NCCCCNC(=O)CN(CCN(CCN(CC(=O)O)CC(=O)O)CC(=O)O)CC(=O)O)C4(C)CC(N)=O)C(CCC(N)=O)C3(C)C)C(CCC(N)=O)C2(C)CC(N)=O.[C-]#N.[Co+3] (stereo not drawn) [CNB12DTPA, cyanocobalamin-b-(4-aminobutyl)-amide-DTPA]
- pH of the solution [1]: 5.75
- IFBA supernatant counts ([2]; PT 1, Clinical Run 11942.5): 5151 counts
- IFBA value (in parentheses) [2, 4]: (2.30)
- IFBA supernatant counts ([2]; PT 2, Clinical Run 11656): 5133.5 counts
- IFBA value (in parentheses) [2, 5]: (2.31)
- IFBA supernatant counts ([2]; PT 3, Clinical Run 11780): 5338.5 counts
- IFBA value (in parentheses) [2, 6]: (2.22)
- IFBA supernatant counts ([2]; PT 4, Clinical Run 11617): 6002.5 counts
- IFBA value (in parentheses) [2, 7]: (1.98)
- IFBA supernatant counts ([2]; PT 5, Clinical Run 11653.5): 5973.5 counts
- IFBA value (in parentheses) [2, 8]: (1.99)
- averaged percent binding to IF [2]: 52.9%
- averaged percent binding to the transcobalamin proteins [3]: 66.4%
- UBBC supernatant counts [3, 9]: 222.6 counts
- UBBC supernatant counts ([3]; serum PT 2, Clinical Run 632): 216.9 counts
- UBBC supernatant counts ([3]; serum PT 3, Clinical Run 2097): 713.3 counts
- UBBC supernatant counts ([3]; serum PT 4, Clinical Run 1378): 433.2 counts
- UBBC supernatant counts ([3]; serum PT 5, Clinical Run 1682): 643.2 counts

SMILES: CC1=C2N=C(C=C3N=C(C(C)=C4[N-]C(C(CC(N)=O)C4(C)CCC(=O)NCC(C)OP(=O)([O-])OC4C(CO)OC(n5cnc6cc(C)c(C)cc65)C4O)C4(C)N=C1C(CCC(=O)NCCCCNC(=O)CN(CCN(CCN(CC(=O)O)CC(=O)O)CC(=O)O)CC(=O)O)C4(C)CC(N)=O)C(CCC(N)=O)C3(C)C)C(CCC(N)=O)C2(C)CC(N)=O.[CH3-].[Co+3] (stereo not drawn) [MEB12DTPA, methylcobalamin-b-(4-aminobutyl)-amide-DTPA]
- pH of the solution [1]: 6.10
- IFBA supernatant counts ([2]; PT 1, Clinical Run 11942.5): 4279 counts
- IFBA value (in parentheses) [2, 4]: (2.77)
- IFBA supernatant counts ([2]; PT 2, Clinical Run 11656): 4082 counts
- IFBA value (in parentheses) [2, 5]: (2.92)
- IFBA supernatant counts ([2]; PT 3, Clinical Run 11780): 4456.5 counts
- IFBA value (in parentheses) [2, 6]: (2.66)
- IFBA supernatant counts ([2]; PT 4, Clinical Run 11617): 4414 counts
- IFBA value (in parentheses) [2, 7]: (2.69)
- IFBA supernatant counts ([2]; PT 5, Clinical Run 11653.5): 4381.5 counts
- IFBA value (in parentheses) [2, 8]: (2.77)
- averaged percent binding to IF [2]: 63.2%
- averaged percent binding to the transcobalamin proteins [3]: 94.0%
- UBBC supernatant counts [3, 9]: 17.1 counts
- UBBC supernatant counts ([3]; serum PT 2, Clinical Run 632): 26.8 counts
- UBBC supernatant counts ([3]; serum PT 3, Clinical Run 2097): 278.9 counts
- UBBC supernatant counts ([3]; serum PT 4, Clinical Run 1378): 60.9 counts
- UBBC supernatant counts ([3]; serum PT 5, Clinical Run 1682): 91.1 counts
